Results as given in ChEMBL document CHEMBL1201862, “PubChem BioAssay data set” (2004).
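48-hour exposure; five concentrations; linearly interpolated endpoints. GI50 marks 50% less growth.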 Calls of active or inactive are those of the source. Cut-off read from the data, not from the text of the source: active = GI50 up to about 1.1 µM and inactive = higher.

How the values were obtained:
Assay in all cases: DTP human tumour cell line panel, 48 h
DU-145 = system: DU-145
HT-29 = system: HT-29
SNB-75 = system: SNB-75
NCI/ADR-RES = system: NCI/ADR-RES
A498 = system: A498
HCT-15 = system: HCT-15
786-0 = system: 786-0
EKVX = system: EKVX
Hs-578T = system: Hs-578T
OVCAR-5 = system: OVCAR-5
SK-OV-3 = system: SK-OV-3
RPMI-8226 = system: RPMI-8226
IGROV-1 = system: IGROV-1
T47D = system: T47D
SNB-19 = system: SNB-19
SF-268 = system: SF-268
Malme-3M = system: Malme-3M
K562 = system: K562
M14 = system: M14

SMILES	GI50 (DU-145)	GI50 (HT-29)	GI50 (SNB-75)	GI50 (NCI/ADR-RES)	GI50 (A498)	GI50 (HCT-15) [µM]	GI50 (786-0)	GI50 (EKVX)	GI50 (Hs-578T)	GI50 (OVCAR-5)	GI50 (SK-OV-3)	GI50 (RPMI-8226)	GI50 (IGROV-1)	GI50 (T47D)	GI50 (SNB-19)	GI50 (SF-268)	GI50 (Malme-3M)	GI50 (K562)	GI50 (M14)
c1ccc(/N=C2\SC(=NNc3ccccc3)S\C2=N/c2ccccc2)cc1	62.2 µM (inactive)	45.4 µM (inactive)	85.7 µM (inactive)	40.5 µM (inactive)	> 100 µM (inactive)	> 100	> 100 µM (inactive)	> 100 µM (inactive)	32.8 µM (inactive)	98.2 µM (inactive)	> 100 µM (inactive)	> 100 µM (inactive)	54.2 µM (inactive)	74.1 µM (inactive)	72.6 µM (inactive)	> 100 µM (inactive)	> 100 µM (inactive)	> 100 µM (inactive)	
CCOC(=O)c1cc([N+](=O)[O-])cc([N+](=O)[O-])c1Sc1[nH]cnc2ncnc1-2	1.31 µM (inactive)	2.37 µM (inactive)	10.3 µM (inactive)	3.11 µM (inactive)	12.2 µM (inactive)	4.33	0.824 µM (active)	5.08 µM (inactive)	6.92 µM (inactive)	9.71 µM (inactive)	11 µM (inactive)	1.65 µM (inactive)	2.31 µM (inactive)	1.2 µM (inactive)	19.5 µM (inactive)	3.32 µM (inactive)		0.661 µM (active)	0.869 µM (active)
CCOP(=O)(COCCn1ncc(=O)[nH]c1=O)OCC	> 100 µM (inactive)	> 100 µM (inactive)	> 100 µM (inactive)	> 100 µM (inactive)	> 100 µM (inactive)	> 100		> 100 µM (inactive)	> 100 µM (inactive)	> 100 µM (inactive)		> 100 µM (inactive)	> 100 µM (inactive)	> 100 µM (inactive)	> 100 µM (inactive)	> 100 µM (inactive)	> 100 µM (inactive)		> 100 µM (inactive)
Cc1nc2c(ccc3[nH]c4ccccc4c32)s1	33.8 µM (inactive)	16.9 µM (inactive)	32.9 µM (inactive)	34.8 µM (inactive)	17.8 µM (inactive)	18.8	26.1 µM (inactive)	21.2 µM (inactive)	16.3 µM (inactive)	19.3 µM (inactive)	22.3 µM (inactive)		21.9 µM (inactive)	20.2 µM (inactive)	37.8 µM (inactive)	29.2 µM (inactive)	31.4 µM (inactive)	22.3 µM (inactive)	18.9 µM (inactive)
CSc1nc(NC2CCCC2)c2cc[nH]c2n1	> 100 µM (inactive)	37.1 µM (inactive)		71.1 µM (inactive)	22.6 µM (inactive)	54.2	95.1 µM (inactive)	31.2 µM (inactive)	53.1 µM (inactive)		> 100 µM (inactive)	33.6 µM (inactive)	98.2 µM (inactive)	61.1 µM (inactive)	66.7 µM (inactive)	68.7 µM (inactive)	> 100 µM (inactive)	32.9 µM (inactive)	65 µM (inactive)
C=C(C)C1CC2(C)C(C)CC(OC(=O)/C(C)=C\C)CC2C(OC(=O)/C(C)=C\C)C1O (stereo not drawn)	66.8 µM (inactive)	35.8 µM (inactive)	22 µM (inactive)	> 100 µM (inactive)	> 100 µM (inactive)	42	> 100 µM (inactive)	67 µM (inactive)	34.7 µM (inactive)	> 100 µM (inactive)	> 100 µM (inactive)		66.2 µM (inactive)	43.2 µM (inactive)	25.1 µM (inactive)	66.4 µM (inactive)	> 100 µM (inactive)	> 10 µM (inactive)	> 100 µM (inactive)
CO[P@@]1(=O)O[C@@H](c2ccccc2)[C@H](O)[C@@]1(O)c1ccccc1	> 100 µM (inactive)	45.6 µM (inactive)	> 100 µM (inactive)	> 100 µM (inactive)	> 100 µM (inactive)	> 100	> 100 µM (inactive)	> 100 µM (inactive)	91.8 µM (inactive)	> 100 µM (inactive)	> 100 µM (inactive)		> 100 µM (inactive)	> 100 µM (inactive)	> 100 µM (inactive)	> 100 µM (inactive)	> 100 µM (inactive)	> 100 µM (inactive)	> 100 µM (inactive)
Cc1cc(S(=O)(=O)Nc2nc3cc(-c4ccc(Cl)cc4)sc3c(=O)n2N)c(S)cc1Cl	37.2 µM (inactive)	54.5 µM (inactive)	> 100 µM (inactive)	52.4 µM (inactive)		45.6	45.9 µM (inactive)	82.8 µM (inactive)	> 100 µM (inactive)	44.2 µM (inactive)	63.2 µM (inactive)	> 100 µM (inactive)	59.6 µM (inactive)	31.3 µM (inactive)	80.2 µM (inactive)	86.3 µM (inactive)	> 100 µM (inactive)	32.7 µM (inactive)	> 100 µM (inactive)
CCCCCCCCCCOC1C(C(O)CNCCCN(C)C)OC2OC3(CCCCC3)OC21 (stereo not drawn)	3.35 µM (inactive)	1.62 µM (inactive)	0.0491 µM (active)	3.31 µM (inactive)		1.69	1.9 µM (inactive)	3.71 µM (inactive)	3.17 µM (inactive)	1.72 µM (inactive)	3.65 µM (inactive)	1.94 µM (inactive)	1.93 µM (inactive)	2.75 µM (inactive)	1.75 µM (inactive)	2.17 µM (inactive)	1.99 µM (inactive)	1.63 µM (inactive)	2 µM (inactive)
N=C(N)NCCCC(NC(=O)OCCCCCn1ccc(N)nc1=O)C(=O)O (stereo not drawn)	> 100 µM (inactive)	> 100 µM (inactive)	> 100 µM (inactive)	> 100 µM (inactive)	> 100 µM (inactive)	> 100	> 100 µM (inactive)	> 100 µM (inactive)	> 100 µM (inactive)	> 100 µM (inactive)	> 100 µM (inactive)	> 100 µM (inactive)	> 100 µM (inactive)	> 100 µM (inactive)	> 100 µM (inactive)	> 100 µM (inactive)		> 100 µM (inactive)	> 100 µM (inactive)
Nc1ncc2c(n1)-c1ccccc1OC2NC1CC1 (stereo not drawn)	> 100 µM (inactive)	> 100 µM (inactive)	> 100 µM (inactive)	> 100 µM (inactive)	> 100 µM (inactive)	> 100	> 100 µM (inactive)	97.5 µM (inactive)	> 100 µM (inactive)	> 100 µM (inactive)	> 100 µM (inactive)	> 100 µM (inactive)	> 100 µM (inactive)	> 100 µM (inactive)	> 100 µM (inactive)	> 100 µM (inactive)			> 100 µM (inactive)
C[C@]12CC/C(=N\O)C=C1CC[C@@H]1[C@@H]2CC[C@]2(C)C(=N/O)/C(=C/c3ccncc3)C[C@@H]12	31.6 µM (inactive)	11.5 µM (inactive)	25.5 µM (inactive)	21.2 µM (inactive)		5.48	24.7 µM (inactive)	25.7 µM (inactive)	86.5 µM (inactive)	42.8 µM (inactive)	51.5 µM (inactive)	6.85 µM (inactive)	53.8 µM (inactive)	19.7 µM (inactive)	28.8 µM (inactive)	28.7 µM (inactive)	37.5 µM (inactive)	26.4 µM (inactive)	13.5 µM (inactive)
COc1ccc2cc1Oc1ccc(cc1)CC1c3cc(OC)c(cc3CCN1C)Oc1c(OC)c(OC)cc3c1C(C2)N(C)CC3 (stereo not drawn)	12.6 µM (inactive)	8.79 µM (inactive)	8.63 µM (inactive)	14 µM (inactive)	10.6 µM (inactive)	9.06	13.1 µM (inactive)	12.2 µM (inactive)	10.8 µM (inactive)	34.2 µM (inactive)	29.4 µM (inactive)		18.8 µM (inactive)	9.93 µM (inactive)	12.7 µM (inactive)	12.9 µM (inactive)	11.4 µM (inactive)	7.94 µM (inactive)	4.91 µM (inactive)
CC1=CC(=O)/C(=C/NC(=S)NCc2ccccc2)C(=O)O1	> 100 µM (inactive)	> 100 µM (inactive)	80 µM (inactive)	> 100 µM (inactive)	43.9 µM (inactive)	> 100	> 100 µM (inactive)	> 100 µM (inactive)	> 100 µM (inactive)	> 100 µM (inactive)	> 100 µM (inactive)		> 100 µM (inactive)	> 100 µM (inactive)	> 100 µM (inactive)	> 100 µM (inactive)	> 100 µM (inactive)		> 100 µM (inactive)
S=C(S)N1CCN(c2ccc(Cl)c(Cl)c2)CC1	25.9 µM (inactive)	20.8 µM (inactive)	20.7 µM (inactive)	41.4 µM (inactive)	18 µM (inactive)	34.2	28.1 µM (inactive)	12.9 µM (inactive)	23.4 µM (inactive)	29.9 µM (inactive)		19.5 µM (inactive)	28.7 µM (inactive)	16.6 µM (inactive)	42.5 µM (inactive)	31.8 µM (inactive)	24.2 µM (inactive)	19.3 µM (inactive)	19.7 µM (inactive)
CCN(CC)COC(=S)S	54.6 µM (inactive)	39 µM (inactive)	30.5 µM (inactive)	> 88.1 µM (inactive)	> 100 µM (inactive)	> 100	33.3 µM (inactive)	> 100 µM (inactive)	> 100 µM (inactive)	> 100 µM (inactive)	> 100 µM (inactive)		89.7 µM (inactive)	> 100 µM (inactive)	> 100 µM (inactive)	> 78 µM (inactive)	55.8 µM (inactive)	38 µM (inactive)	44.1 µM (inactive)
